Read-outs that look alike come from different tables or passages of the source.
Key:
MCF-7 (ER+) = assay: Growth inhibition assay (tetrazolium blue), MCF-7 (ER+) breast cancer cells; assay type: cell-based; conditions: for IC50: 7 days incubation, tetrazolium blue; for inhibition at 1 µM: MCF7
Protocol: (§1) Growth inhibition assays were conducted using DIM, LT, and some of the novel compounds of the invention on several breast cancer cell lines. The cell lines studied were MCF-7 (ER^+), MDA-MB-231 (ER^−), and a tamoxifen-resistant strain of MCF-7 (ER^+). The growth assays were conducted according to the method of Tiwari et al. (Tiwari, R. K., J Natl Cancer Inst 86:126-131, 1994). For growth Inhibition Assay, cells were grown in multi-well culture plates. Experiments were performed in quadruplicate. MCF-7 (ER^+) cells were grown in special medium containing 5% animal serum that had been treated to remove endogenous estrogens. After the plates were incubated at 37° C. for 24 hours, to each well was added test compound at various concentrations, with or without the estrogen 17β-estradiol (E2). The cells were then incubated for 7 days, with medium and test solutions replaced every other day. On Day 8, after the medium was removed and replaced with fresh medium without test solutions, the tetrazolium blue test was performed to determine the percentage of viable cells (viable cells convert the colorless tetrazolium to formazan, which is blue). At 4 hours after tetrazolium blue was added, the reaction was stopped and the formazan concentration was measured by detection of light absorbance at 575 nm in an enzyme linked immunosorbent assay (ELISA) plate reader. The percent growth inhibition was determined by dividing the ELISA results for samples containing test compounds by the results for control samples. […] (ER^−) cells were maintained and tested under the same conditions as described above, except that no estrogen was added.

MDA-MB-231 (ER−) = assay: Growth inhibition assay (tetrazolium blue), MDA-MB-231 (ER−) breast cancer cells; assay type: cell-based, human; conditions: for IC50: no estrogen added
Protocol: as §1

[1] = test system: Tamoxifen-resistant MCF-7; assay: Growth inhibition assay (tetrazolium blue), tamoxifen-resistant MCF-7 cells; assay type: cell-based
Protocol: as §1

[2] = test system: Ishikawa cells (endometrial carcinoma cells); assay: Ishikawa assay (alkaline phosphatase induction), estrogenic and antiestrogenic activity; assay type: cell-based, human; conditions: AlkP induction, 72 hours; for Ishikawa Assay Anti-Estrogenic Activity at 10 μM: unit assumed
Protocol: Estrogenic and antiestrogenic activities were determined using the Ishikawa assay (Littlefield, B. A., Endocrinology 127: 2757-2762, 1990). The activities were measured at 10 μM concentrations of the test compounds. Human Ishikawa cells (endometrial carcinoma cells) are very sensitive to estrogens, and compounds with estrogenic activity induce alkaline phosphatase (AlkP) enzyme activity in these cells when administered at levels as low as 10^−12 M. Ishikawa cells were grown in growth medium supplemented with glutamine, sodium pyruvate, and 10% animal serum. At 24 hours before the experiment, the medium was replaced with medium free of phenol red and containing 5% animal serum that had been treated to remove endogenous estrogens. On Day 1, the cells were harvested and plated in fresh phenol red-free medium, and test solutions were added with or without the estrogen 17β-estradiol. After the treated cells were incubated for 72 hours, the AlkP assay was used to determine the estrogenic and antiestrogenic activity of the test compounds. Like the tetrazolium blue assay described above, this assay involves calorimetric detection using an ELISA plate reader, but here the indicator dye is yellow.

LNCaP = assay: Growth inhibition assay (MTT), LNCaP prostate cancer cells; assay type: cell-based; conditions: Day 7, MTT
Protocol: (§2) Assays were conducted on compound 46 (SR13654) to determine its growth inhibitory effect on three prostate cancer cell lines, LNCaP, DU-145 and PC-3. The methods were described briefly herein. LNCaP and PC-3 cells will be maintained in […] medium, and DU-145 cells in Eaglets minimal essential medium (MEM) medium supplemented with nonessential amino acids, 2 mM glutamine and 1 mM pyruvate. All media will contain 10% fetal bovine serum (FCS). To screen compounds for their effect on cell proliferation, cells are seeded in 96-well plates at 2000 cells/well in 200 μL of medium. After cells are allowed to attach for 24 h, test compound is added to each well in 10 μL aliquots and control wells receive vehicle only. Medium and test solutions are replaced every other day. On Day 7, viable cells are measured with the MTT assay, using the protocol provided by the manufacturer (Promega, Madison, Wis.).

DU-145 = assay: Growth inhibition assay (MTT), DU-145 prostate cancer cells; assay type: cell-based; conditions: Day 7, MTT
Protocol: as §2

PC-3 = assay: Growth inhibition assay (MTT), PC-3 prostate cancer cells; assay type: cell-based; conditions: Day 7, MTT
Protocol: as §2

NIH-OVCAR-3 = assay: Growth inhibition assay (MTT), NIH-OVCAR-3 ovarian cancer cells; assay type: cell-based; conditions: Homo sapiens, OVCAR-3, 168 h; Day 7, MTT
Protocol: (§3) Assays were conducted on compound 74 (SR13668) to determine its growth inhibitory effect on two ovarian cancer cell lines, NIH-OVCAR-3 and SKOV-3. OVCAR-3 cells are routinely maintained in RPMI-1640 medium supplemented with 2 mM glutamine (GLN) and 10% fetal calf serum (FCS), and SKOV-3 cells in McCoy's 5A medium supplemented with 2 mM GLN and 10% FCS. Both cell lines are fed with fresh medium every other day and passaged every 6-7 days. To conduct the growth inhibition assay, cells from either cell line are seeded in 96-well plates at 2000 cells/well in 200 μL of medium. After cells are allowed to attach for 24 h, test compounds dissolved in dimethyl sulfoxide (DMSO) and further diluted with medium are added to each well in 10-μL aliquots. The final DMSO concentration is kept at 0.05%. Control wells receive vehicle only. Media and test solutions are replaced every other day. On Day 7, viable cells are measured with the MTT (tetrazolium blue) assay, using an MTT kit.

SKOV-3 = assay: Growth inhibition assay (MTT), SKOV-3 ovarian cancer cells; assay type: cell-based; conditions: Homo sapiens, SK-OV-3, 168 h; Day 7, MTT
Protocol: as §3

[3] = test system: MDA-MB-231 human carcinoma cells; assay: Boyden Chamber Invasion Assay; assay type: cell-based; conditions: 5 μM, 16 h end-point
Protocol: MDA-MB-231 human carcinoma cells was used for this Boyden Chamber Invasion Assay (Meng et al. (2000) J. Mol. Med. 78, 155-165; Meng et al. (2000) Breast Cancer Res. Treat. 63, 147-152). Briefly, to each well of a 24-well Biocoat invasion chamber plate, 0.6 mL of appropriate medium containing 10% FCSH 6 μg/ml Fibronectin is added, followed by gentle placement of a CCI in each well. To each CCI is added freshly harvested cells suspended in 200 μL of medium containing either the test compound or vehicle alone. The preparations are incubated at 37° C. for 16 h, and then the CCI is removed from each well, fixed for 10 min with 1 ml of 3.7% paraformaldehyde in PBS, and stained for 10 min in 1 mL of Wright-Giemsa stain solution. The stained CCI is placed on a glass microscope slide and the upper surface cells are carefully removed by scraping with a cotton swab. The cells on the lower surface are counted in a bright field microscope. The inhibitory effect of a test compound is calculated by dividing the number of cells in a treated preparation by that of the vehicle control and expressed as a percentage.

[4] = test system: MDA-MB-231 human carcinoma cells; assay: Parallel cell growth inhibition assay to the invasion study; assay type: cell-based; conditions: 16 h end-point
[5] = test system: MCF-7 breast cancer xenografts; assay: ER+ MCF-7 breast cancer xenografts in nude mice; assay type: in vivo, female Balb/c nude mice; conditions: oral gavage daily, MCF-7 xenograft
Protocol: To study the in vivo activity of novel compound 74 against estrogen-dependent breast cancer, the compound was administered to nude mice that had been implanted with […] MCF-7 breast cancer cells. To start the experiment, female Balb/c nude mice were implanted subcutaneously (s.c.) with estrogen pellets two days prior to inoculation of cancer cells, for stimulation of cell growth. MCF-7 cells were then implanted s.c. in the flanks, using an inoculum of 5×10^6 cells in a medium-Matrigel mixture (1:1, v/v). When the mean tumor volume reached approximately 100 mm^3, the test compound in 0.5% hydroxypropylcellulose in sterile saline solution (or vehicle alone for controls) was administered orally by gavage daily. There were 7 mice in the experimental and control groups. Mice were examined daily for tumor growth, and tumors and body weight were measured twice weekly. The tumor volume is 4/3πr1^2r2, where r1 and r2 are the short radius and long radius, respectively. On Day 27, all the mice were sacrificed, and the major organs examined by a pathologist.

[6] = test system: MDA-MB-231 human breast cancer xenografts; assay: (ER−) MDA-MB-231 breast cancer xenografts in nude mice; assay type: in vivo, female Balb/c nude mice; conditions: 10, 30, and 100 mg/kg daily oral gavage, MDA-MB-231 xenograft
Protocol: As a further test of in vivo efficacy against estrogen-independent breast cancer, the novel compound 74 was administered to nude mice that had been implanted with (ER^−) MDA-MB-231 human breast cancer xenografts. To start, female Balb/c nude mice were implanted subcutaneously (s.c.) with MDA-MB-231 cells, using an inoculum of 5×10^6 cells in a medium-Matrigel mixture (1:1, v/v). When the mean tumor volume reached approximately 70 mm^3, compound was administered daily at three dose levels (10, 30, and 100 mg/kg) via oral gavage. The methods used in the study were essentially the similar to those described in Example 29 herein.

[7] = test system: SKOV-3 human ovarian cancer xenografts; assay: SKOV-3 human ovarian cancer xenografts in nude mice; assay type: in vivo, female Balb/c nude mice; conditions: 30 mg/kg orally daily from Day 0, SKOV-3 xenograft
Protocol: To start, female Balb/c nude mice were implanted subcutaneously (s.c.) with SKOV-3 cells in the flanks, using an inoculum of 5×10^6 cells in a medium-Matrigel mixture (1:1, v/v), and compound 74 (30 mg/kg) was orally administered daily via gavage from Day 0. Tumor volume and body weight were measured twice weekly.

Row | SMILES | IC50 (MCF-7 (ER+)) | IC50 (MDA-MB-231 (ER−)) | IC50 [1] | IC50 (MCF-7 (ER+); Homo sapiens, MCF7, 168 h) | IC50 (MDA-MB-231 (ER−); Homo sapiens, MDA-MB-231) | IC50 ([1]; Tamoxifen-resistant MCF7) | MCF-7 (ER+) % Growth Inhibition at 1 μM (MCF-7 (ER+)) | MDA-MB-231 (ER−) % Growth Inhibition at 10 μM (MDA-MB-231 (ER−)) | Ishikawa Assay Estrogenic Activity at 10 μM [2] | Ishikawa Assay Anti-Estrogenic Activity at 10 μM [2] | inhibition at 1 µM (MCF-7 (ER+); Homo sapiens) | inhibition at 10 µM (MDA-MB-231 (ER−); Homo sapiens, MDA-MB-231) | also measured
1 | CCOC(=O)c1ccc2[nH]c(Cc3[nH]c4ccc(C(=O)OCC)cc4c3C)c(C)c2c1 [Compound 46, 5,5′-Dicarbethoxy-3,3′-dimethyl-2,2′-diindolylmethane] | 31 nM | 6900 nM | 460 nM | – | – | – | 100% | 81% | 0 | 94% | – | – | IC50 (LNCaP): 4700 nM; IC50 (DU-145): 480 nM; IC50 (PC-3): 200 nM
2 | CCOC(=O)Oc1c2[nH]c3ccc(C(=O)OCC)cc3c2cc2c1[nH]c1ccc(C(=O)OCC)cc12 [Compound 63, 2,10-Dicarbethoxy-6-ethoxycarbonyloxy-5,7-dihydro-indolo[2,3-b]carbazole] | – | – | – | 1400 nM | 2000 nM | 3000 nM | – | – | 0 | 100% | 66% | 94% | –
3 | CCOC(=O)c1ccc2[nH]c3c(OC)c4[nH]c5ccc(C(=O)OCC)cc5c4cc3c2c1 [Compound 74, 2,10-Dicarbethoxy-6-methoxy-5,7-dihydro-indolo[2,3-b]carbazole] | – | – | – | 200 nM | 7800 nM | 930 nM | – | – | 0 | 80% | 100% | 69% | IC50 (NIH-OVCAR-3): 5100 nM; IC50 (SKOV-3): 4000 nM; reduction in the invasive capacity of MDA-MB-231 cells [3]: 90%; inhibition at 5 µM [4]: 22%; body weights of the treated mice [5]: unaffected; tumor volume versus control mice ([5]; FIG. 1): less than half of those in the control mice; body weights of the treated mice [6]: unaffected; tumor volume versus control mice ([6]; FIG. 2): less than half of those in the control mice; body weights of the treated mice [7]: unaffected; tumor volume versus control mice ([7]; FIG. 3): significantly less than those in the control mice

Continued, in another order:

Row | IC50 (MCF-7 (ER+)) | IC50 (MDA-MB-231 (ER−)) | IC50 [1] | IC50 (MCF-7 (ER+); Homo sapiens, MCF7, 168 h) | IC50 (MDA-MB-231 (ER−); Homo sapiens, MDA-MB-231) | IC50 ([1]; Tamoxifen-resistant MCF7) | SMILES | MCF-7 (ER+) % Growth Inhibition at 1 μM (MCF-7 (ER+)) | MDA-MB-231 (ER−) % Growth Inhibition at 10 μM (MDA-MB-231 (ER−)) | Ishikawa Assay Estrogenic Activity at 10 μM [2] | Ishikawa Assay Anti-Estrogenic Activity at 10 μM [2] | inhibition at 1 µM (MCF-7 (ER+); Homo sapiens) | inhibition at 10 µM (MDA-MB-231 (ER−); Homo sapiens, MDA-MB-231) | also measured
4 | 5500 nM | 31000 nM | > 10000 nM | – | – | – | c1ccc2c(Cc3c[nH]c4ccccc34)c[nH]c2c1 [DIM, 3,3′-diindolylmethane, reference compound] | 3% | 20% | – | – | – | – | –
5 | – | – | – | 18 nM | 2100 nM | 56 nM | CCOC(=O)Oc1c2[nH]c3ccccc3c2cc2c1[nH]c1ccccc12 [Compound 58, 6-Ethoxycarbonyloxy-5,7-dihydro-indolo[2,3-b]carbazole] | – | – | 0 | 100% | 100% | 97% | –
6 | 1800 nM | 13000 nM | 600 nM | – | – | – | c1ccc2c(Cc3[nH]c4ccccc4c3Cc3c[nH]c4ccccc34)c[nH]c2c1 [LT, 2-(indol-3-ylmethyl) 3,3′-diindolyl-methane, reference compound] | 19% | 34% | 0 | 100% | – | – | –
